Measurements as given in PubChem BioAssay AID256 (DTP/NCI, 2004).
Where “and” joins values, the source holds several entries; their conditions need not be identical. Identical values can stand only once. Inconclusive results and toxic doses are left out. The calls were made as follows: active = survival T/C of 150% or more; inactive = T/C below 125% in these data.

System: CD2F1 mice, L1210 leukemia ip, survival T/C
Assay: NCI In Vivo Anticancer Drug Screen. Data for tumor model L1210 Leukemia (intraperitoneal) in CD2F1 (CDF1) mice
Settings: endpoint: mean survival time, higher = longer survival
Method in brief: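 Activity against a transplanted murine tumor was judged by comparing the compound group with a vehicle group. The outcome in the treated animals was divided by that in the controls.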

Measured: T/C

S=c1nc[nH]c2nc[nH]c12
active: dose: 8.0 mg/kg/injection, schedule: Q03HX024 (ip), vehicle: alkali diluted with water 155 % of control | dose: 16.0 mg/kg/injection, schedule: Q03HX024 (ip), vehicle: alkali diluted with water 160 % of control | dose: 40.0 mg/kg/injection, schedule: Q01DX005 (ip), vehicle: saline 150 % of control | dose: 40.0 mg/kg/injection, schedule: Q01DX009 (ip), vehicle: other 166 % of control and 167 % of control | dose: 66.0 mg/kg/injection, schedule: Q04DX003 (ip), vehicle: saline 163 % of control | dose: 75.0 mg/kg/injection, schedule: Q01DX009 (ip), vehicle: alkali diluted with saline 156 % of control and 170 % of control | dose: 80.0 mg/kg/injection, schedule: Q01DX005 (ip), vehicle: saline with Tween-80 168 % of control | dose: 80.0 mg/kg/injection, schedule: Q01DX005 (ip), vehicle: saline 170 % of control and 172 % of control | dose: 80.0 mg/kg/injection, schedule: Q01DX005 (ip), vehicle: sodium bicarbonate 157 % of control | dose: 80.0 mg/kg/injection, schedule: Q01DX007 (ip), vehicle: saline 158 % of control | dose: 80.0 mg/kg/injection, schedule: Q01DX009 (ip), vehicle: alkali diluted with saline 150 % of control | dose: 80.0 mg/kg/injection, schedule: Q01DX009 (ip), vehicle: alkali diluted with water 150 % of control and 158 % of control | dose: 80.0 mg/kg/injection, schedule: Q01DX009 (ip), vehicle: other 156 % of control | dose: 80.0 mg/kg/injection, schedule: Q01DX009 (ip), vehicle: saline 156 % of control | dose: 80.0 mg/kg/injection, schedule: Q04DX002 (ip), vehicle: saline 150 % of control | dose: 90.0 mg/kg/injection, schedule: Q## X002 (ip), vehicle: saline 153 % of control | dose: 150.0 mg/kg/injection, schedule: Q04DX003 (ip), vehicle: alkali diluted with saline 155 % of control | dose: 160.0 mg/kg/injection, schedule: Q01DX001 (ip), vehicle: alkali diluted with water 152 % of control | dose: 160.0 mg/kg/injection, schedule: Q01DX005 (ip), vehicle: saline with Tween-80 175 % of control | dose: 160.0 mg/kg/injection, schedule: Q01DX005 (ip), vehicle: saline 171 % of control
inactive: dose: 9.38 mg/kg/injection, schedule: Q01DX009 (ip), vehicle: alkali diluted with saline 119 % of control | dose: 10.0 mg/kg/injection, schedule: Q01DX005 (ip), vehicle: alkali diluted with saline 113 % of control | dose: 10.0 mg/kg/injection, schedule: Q01DX005 (ip), vehicle: alkali diluted with water 98 % of control | dose: 18.8 mg/kg/injection, schedule: Q01DX009 (ip), vehicle: alkali diluted with saline 113 % of control | dose: 19.4 mg/kg/injection, schedule: Q04DX003 (ip), vehicle: alkali diluted with saline 101 % of control | dose: 20.0 mg/kg/injection, schedule: Q01DX007 (ip), vehicle: saline 116 % of control | dose: 20.0 mg/kg/injection, schedule: Q01DX009 (ip), vehicle: alkali diluted with water 114 % of control | dose: 20.0 mg/kg/injection, schedule: Q01DX009 (ip), vehicle: other 121 % of control | dose: 20.0 mg/kg/injection, schedule: Q01DX009 (ip), vehicle: saline 120 % of control | dose: 20.0 mg/kg/injection, schedule: Q04DX002 (ip), vehicle: saline 120 % of control | dose: 28.13 mg/kg/injection, schedule: Q04DX003 (ip), vehicle: alkali diluted with saline 95 % of control | dose: 30.0 mg/kg/injection, schedule: Q## X006 (ip), vehicle: saline 101 % of control | dose: 37.5 mg/kg/injection, schedule: Q01DX009 (ip), vehicle: alkali diluted with saline 122 % of control | dose: 40.0 mg/kg/injection, schedule: Q01DX005 (ip), vehicle: sodium bicarbonate 116 % of control | dose: 40.0 mg/kg/injection, schedule: Q03DX003 (ip), vehicle: saline 113 % of control | dose: 40.0 mg/kg/injection, schedule: Q04DX003 (ip), vehicle: saline 116 % of control | dose: 60.0 mg/kg/injection, schedule: Q## X009 (ip), vehicle: saline 122 % of control | dose: 80.0 mg/kg/injection, schedule: Q01DX001 (ip), vehicle: alkali diluted with water 120 % of control | dose: 125.0 mg/kg/injection, schedule: Q01DX001 (ip), vehicle: alkali diluted with saline 120 % of control | dose: 150.0 mg/kg/injection, schedule: Q01DX009 (ip), vehicle: alkali diluted with saline 113 % of control and 95 % of control | dose: 160.0 mg/kg/injection, schedule: Q01DX009 (ip), vehicle: alkali diluted with saline 101 % of control | dose: 160.0 mg/kg/injection, schedule: Q01DX009 (ip), vehicle: alkali diluted with water 114 % of control and 88 % of control | dose: 160.0 mg/kg/injection, schedule: Q01DX009 (ip), vehicle: other 87 % of control | dose: 165.0 mg/kg/injection, schedule: Q01DX001 (ip), vehicle: alkali diluted with saline 122 % of control
